The results in this text go back to ChEMBL document CHEMBL4627388, “Structural Specificity of Flavonoids in the Inhibition of Human Fructose 1,6-Bisphosphatase” (J Nat Prod, 2020).

Broadly, the inhibition is the share of the control response that was lost under treatment. Read a high inhibition as strong suppression. By IC50 is commonly meant the midpoint of a concentration-inhibition curve.

In one experiment the target is T1, Fructose-1,6-bisphosphatase 1 (Homo sapiens) (UniProt P09467).
T1 sequence (whole entry): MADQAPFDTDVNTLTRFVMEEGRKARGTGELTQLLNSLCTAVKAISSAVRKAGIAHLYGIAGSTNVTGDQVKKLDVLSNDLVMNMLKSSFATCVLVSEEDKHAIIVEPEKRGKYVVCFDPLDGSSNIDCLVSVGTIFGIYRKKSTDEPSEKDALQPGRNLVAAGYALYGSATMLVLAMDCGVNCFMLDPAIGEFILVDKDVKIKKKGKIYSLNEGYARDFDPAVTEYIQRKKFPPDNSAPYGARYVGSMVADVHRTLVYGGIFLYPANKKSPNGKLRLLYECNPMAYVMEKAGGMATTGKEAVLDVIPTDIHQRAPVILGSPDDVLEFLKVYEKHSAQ
Description: Inhibition of human liver FBP1 at 200 uM incubated for 5 mins by fluorescence method relative to control.
`O=c1c(O)c(-c2ccc(O)c(O)c2)oc2ccccc12` came in with an inhibition of 20%.

In the case of `COc1cccc(-c2oc3cc(OC)ccc3c(=O)c2O)c1`, the inhibition is less than 20%. The same measure, in the same setting: then `COc1ccc(-c2oc3cc(OC)ccc3c(=O)c2O)cc1`, with less than 20%; and `O=c1cc(-c2ccc(O)c(O)c2)oc2c(Cl)c(O)cc(O)c12`, with less than 20%; and `O=c1c(O)c(-c2ccc(O)cc2)oc2cc(O)cc(O)c12`, with less than 20%. `COc1ccc(-c2cc(=O)c3c(O)cc(O)cc3o2)cc1OC` returned an inhibition of less than 20%. Still for that read-out and setting: with `O=c1cc(-c2ccc(O)cc2)oc2cc(O)cc(O)c12` the figure was less than 20%; with `O=c1cc(-c2ccc(O)cc2)oc2cccc(O)c12`, less than 20%.

On to `O=c1c(O)c(-c2cc(O)c(O)c(O)c2)oc2cc(O)cc(O)c12`, for which the inhibition is less than 20%. In the case of `O=c1c(O)c(-c2ccccc2)oc2cc(O)cc(O)c12`, the inhibition was less than 20%.

In turn, `O=c1cc(-c2cccc(O)c2)oc2cc(O)ccc12` had an inhibition of less than 20%.

In the case of `O=c1cc(-c2ccc(O)c(O)c2)oc2cc(O)c(Cl)c(O)c12`, the inhibition is less than 20%. In the case of `O=c1c(Cl)c(-c2ccc(O)c(O)c2)oc2c(Cl)c(O)c(Cl)c(O)c12`, the inhibition was less than 20%. On the same count and under the same terms, with `O=c1cc(-c2cccc(O)c2)oc2cccc(O)c12` the figure was less than 20%; with `O=c1cc(-c2ccc(O)cc2)oc2cc(O)ccc12`, less than 20%. `COc1cc2oc(-c3ccccc3)cc(=O)c2c(O)c1O` registered an inhibition of 46%.

Regarding `O=c1cc(-c2ccccc2)oc2cc(O)cc(O)c12`, the inhibition is less than 20%. Still for that read-out and setting: with `O=c1cc(-c2ccccc2)oc2ccccc12` the figure was less than 20%; with `O=c1c(O)c(-c2ccc(O)c(O)c2)oc2c(O[C@@H]3O[C@H](CO)[C@@H](O)[C@H](O)[C@H]3O)c(O)cc(O)c12`, less than 20%; with `O=c1c(O)c(-c2ccc(O)c(O)c2)oc2cc(O)c(O)c(O)c12`, 37%. `O=c1cc(-c2ccccc2)oc2cccc(O)c12` yielded an inhibition of less than 20%. Same read-out and setting: then `O=c1c(O)c(-c2ccc(O)cc2)oc2cc(O)ccc12`, with less than 20%.

For the molecule `O=c1c(O)c(-c2ccc(O)c(O)c2)oc2cc(O)cc(O)c12`, the inhibition is less than 20%. On the same count and under the same terms, then `COc1ccc(-c2cc(=O)c3c(O)cc(O)cc3o2)cc1`, with less than 20%; and `O=c1c(O)c(-c2ccc(O)c(O)c2)oc2c(O)c(O)ccc12`, with less than 20%.

The molecule `C[C@@H]1O[C@@H](OC[C@H]2O[C@@H](Oc3c(-c4ccc(O)c(O)c4)oc4cc(O)cc(O)c4c3=O)[C@H](O)[C@@H](O)[C@@H]2O)[C@H](O)[C@H](O)[C@H]1O` displayed an inhibition of less than 20%. Still for that read-out and setting: with `O=c1cc(-c2ccccc2)oc2c(O)c(O)cc(O)c12` the figure was less than 20%; with `COc1ccc2c(=O)c(O)c(-c3ccc(O)c(O)c3)oc2c1OC`, less than 20%; with `COc1ccc(-c2oc3c(O)c(O)ccc3c(=O)c2O)cc1OC`, 33%.

Molecule `O=c1c(O)c(-c2cccc(O)c2)oc2cc(O)ccc12` had an inhibition of less than 20%. For the molecule `O=c1cc(-c2cccc(O)c2)oc2ccccc12`, the inhibition was less than 20%. Still for that read-out and setting: with `COc1ccc(-c2oc3ccccc3c(=O)c2O)cc1OC` the figure was less than 20%.

In turn, `O=c1c(Cl)c(-c2ccc(O)c(O)c2)oc2cc(O)cc(O)c12` had an inhibition of less than 20%. The same measure, in the same setting: then `O=c1cc(-c2ccccc2)oc2cc(O)ccc12`, with less than 20%; and `O=c1c(O)c(-c2cccc(O)c2)oc2cc(O)cc(O)c12`, with less than 20%. On the same count and under the same terms, then `O=c1cc(-c2ccc(O)c(O)c2)oc2cc(O)cc(O)c12`, with 22%. `O=C1c2c(O)cc(O)cc2O[C@H](c2ccc(O)c(O)c2)[C@H]1O`: the inhibition is less than 20%.

In the case of `O=C(O)[C@H]1O[C@@H](Oc2cc3oc(-c4ccccc4)cc(=O)c3c(O)c2O)[C@H](O)[C@@H](O)[C@@H]1O`, the inhibition is less than 20%. On the same count and under the same terms, with `O=c1cc(-c2ccc(O)c(O)c2)oc2cc(O)ccc12` the figure was less than 20%; with `O=c1cc(-c2ccc(O)c(O)c2)oc2cccc(O)c12`, less than 20%. `COc1ccc2c(=O)c(O)c(-c3ccc(OCc4ccccc4)c(OCc4ccccc4)c3)oc2c1OC` showed an inhibition of less than 20%. Same read-out and setting: with `COc1cc2oc(-c3ccccc3)cc(=O)c2c(OC)c1OC` the figure was less than 20%. Still for that read-out and setting: with `COc1ccc(-c2oc3c(OCc4ccccc4)c(OCc4ccccc4)ccc3c(=O)c2O)cc1OC` the figure was less than 20%; with `Oc1ccc(-c2[o+]c3c(O)c(O)cc(O)c3cc2O)cc1O`, 46%. The molecule `COc1cc(-c2cc(=O)c3c(O)cc(O)cc3o2)ccc1O` showed an inhibition of less than 20%. The molecule `O=c1cc(-c2ccc(O)c(O)c2)oc2ccccc12` had an inhibition of 25%. Still for that read-out and setting: with `O=c1c(O)c(-c2ccc(O)cc2O)oc2cc(O)cc(O)c12` the figure was less than 20%; with `O=c1c(Cl)c(-c2ccc(O)c(O)c2)oc2c(Cl)c(O)cc(O)c12`, less than 20%.

`O=c1cc(-c2ccc(O)cc2)oc2ccccc12` displayed an inhibition of less than 20%.

Molecule `O=C1C[C@@H](c2ccc(O)c(O)c2)Oc2cc(O)cc(O)c21` gave an inhibition of less than 20%. On the same count and under the same terms, with `O=C1C[C@@H](c2ccc(O)cc2)Oc2cc(O)cc(O)c21` the figure was less than 20%.

For the next experiment, the target named is T2, Fructose-1,6-bisphosphatase 1 (Homo sapiens, UniProt P09467).
T2 sequence (P09467 whole entry): T1 sequence (whole entry)
Nature of the experiment: Inhibition of human liver FBP1 incubated for 5 mins by fluorescence method.
Molecule `O=c1cc(-c2ccccc2)oc2cc(O)c(O)c(O)c12` [BAICALEIN] had an IC50 of 29 µM. Still for that read-out and setting: with `O=c1cc(-c2ccc(O)cc2)oc2cc(O)c(O)c(O)c12` [SCUTELLAREIN] the figure was 38.2 µM.

The molecule `O=c1c(O)c(-c2ccc(O)cc2)oc2c(O)c(O)cc(O)c12` [HERBACETIN] came in with an IC50 of 8.7 µM. Still for that read-out and setting: with `Nc1ncnc2c1ncn2[C@@H]1O[C@H](COP(=O)(O)O)[C@@H](O)[C@H]1O` [ADENOSINE PHOSPHATE] the figure was 2.6 µM. On the same count and under the same terms, then `O=c1c(O)c(-c2ccc(O)c(O)c2)oc2c(O)c(O)cc(O)c12` [GOSSYPETIN], with 24 µM.
